These results are taken from patent US20240174662A1, “SMALL MOLECULE INHIBITORS OF SALT INDUCIBLE KINASES” (Janssen Biotech, Inc., priority 2021, published 2024).

The target of this assay is SIK2 (Homo sapiens (Human), UniProt Q9H0K1). As to the kind of experiment: SIK2 Enzymatic Assay Version 2 (High ATP). Format: biochemical. The note with it: 3 mM ATP and 200 μM HDAC5tide final, ADP-Glo Max luminescence. As to the method: All steps were performed at room temperature. Compounds were pre-plated onto an assay plate using an Echo acoustic dispenser (Labcyte, […] or […]) at 80 nL per well. Enzyme prepared in assay buffer at 6 nM (2× final concentration) was added at 4 μL per well using the Multidrop Combi (Thermo Fisher-used for all additions in this assay) to the assay plate, spun for 1 min at 1000 rpm (Allegra 6KR Beckman Coulter centrifuge), and incubated with compound for 30 minutes. […] ADP-Glo Max Reagent (prepared and aliquoted as per manufacturer instructions) was then added at 8 μL per well, spun and incubated for 2 hours. ADP-Glo Max Detection (prepared and aliquoted as per manufacturer instructions) was added at 8 μL per well to the assay plate, which was spun and incubated for 1 hour. The plate was then read on the Pherastar (BMG Labtech) using a luminescence read. Gain was set between 2200-2500.
SIK2, sequence (Q9H0K1 whole entry, species assumed): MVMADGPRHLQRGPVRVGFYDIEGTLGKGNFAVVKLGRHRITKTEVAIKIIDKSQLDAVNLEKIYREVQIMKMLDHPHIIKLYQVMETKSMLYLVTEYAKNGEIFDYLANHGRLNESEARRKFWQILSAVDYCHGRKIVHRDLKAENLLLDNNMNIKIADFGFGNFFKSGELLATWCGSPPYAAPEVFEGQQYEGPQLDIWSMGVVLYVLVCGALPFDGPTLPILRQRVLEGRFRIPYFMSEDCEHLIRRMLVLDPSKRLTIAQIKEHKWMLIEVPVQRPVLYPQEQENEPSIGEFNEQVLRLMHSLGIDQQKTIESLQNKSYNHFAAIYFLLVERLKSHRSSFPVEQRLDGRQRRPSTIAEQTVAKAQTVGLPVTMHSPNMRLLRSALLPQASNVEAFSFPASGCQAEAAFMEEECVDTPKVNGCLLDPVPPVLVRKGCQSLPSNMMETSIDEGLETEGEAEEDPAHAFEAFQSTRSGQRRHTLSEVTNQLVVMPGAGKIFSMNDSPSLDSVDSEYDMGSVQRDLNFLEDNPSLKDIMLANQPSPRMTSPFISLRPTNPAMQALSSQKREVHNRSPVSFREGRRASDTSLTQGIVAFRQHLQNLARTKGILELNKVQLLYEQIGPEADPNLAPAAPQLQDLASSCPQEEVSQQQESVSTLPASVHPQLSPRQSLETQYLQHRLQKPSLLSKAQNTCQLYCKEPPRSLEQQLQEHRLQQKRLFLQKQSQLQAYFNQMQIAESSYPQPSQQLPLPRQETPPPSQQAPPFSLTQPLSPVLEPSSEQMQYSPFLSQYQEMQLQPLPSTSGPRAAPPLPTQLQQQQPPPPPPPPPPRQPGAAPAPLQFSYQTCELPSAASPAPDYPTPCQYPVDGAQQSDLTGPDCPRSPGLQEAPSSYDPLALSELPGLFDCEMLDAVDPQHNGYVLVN
(In ADP-Glo the light output rises with the ADP produced.)
Consider `Cc1cc(Nc2cc3cc(-c4c(OC[C@@H]5CCN5C)cnn4C)ccn3n2)nc(C2CC2)n1` [Example 134, N-(2-cyclopropyl-6-methyl-pyrimidin-4-yl)-5-[2-methyl-4-[[(2S)-1-methylazetidin-2-yl]methoxy]pyrazol-3-yl]pyrazolo[1,5-a]pyridin-2-amine], for which the IC50 (commonly the concentration that gives 50% inhibition) is 2.8 nM.

`Cc1onc(OC[C@H]2CN(C)CCO2)c1-c1ccn2nc(NC(=O)C3CC3)cc2c1` [Example 79, N-[5-[5-methyl-3-[[(2R)-4-methylmorpholin-2-yl]methoxy]isoxazol-4-yl]pyrazolo[1,5-a]pyridin-2-yl]cyclopropanecarboxamide] displayed an IC50 of 120 nM.

`Cc1cc(Nc2cc3cc(-c4c(OC[C@H]5C[C@H](O)C5)cnn4C)ccn3n2)nc(C)n1` [Example 438, 3-[[5-[2-[(2,6-dimethylpyrimidin-4-yl)amino]pyrazolo[1,5-a]pyridin-5-yl]-1-methyl-pyrazol-4-yl]oxymethyl]cyclobutanol] returned an IC50 of 88 nM.

In the case of `CCN1CC[C@@H]1COc1cnn(C)c1-c1ccn2nc(Nc3ccc(OC)cn3)cc2c1` [Example 166, 5-[4-[[(2R)-1-ethylazetidin-2-yl]methoxy]-2-methyl-pyrazol-3-yl]-N-(5-methoxy-2-pyridyl)pyrazolo[1,5-a]pyridin-2-amine], inhibition was half-maximal at 1.8 nM (IC50).

The compound `CCN1CC[C@@H]1COc1cnn(C(F)F)c1-c1ccn2nc(Nc3cc(C)c(OC)nn3)cc2c1` [Example 483, 5-[2-(difluoromethyl)-4-[[(2R)-1-ethylazetidin-2-yl]methoxy]pyrazol-3-yl]-N-(6-methoxy-5-methyl-pyridazin-3-yl)pyrazolo[1,5-a]pyridin-2-amine] gave a 50% inhibitory concentration (IC50) of 0.9 nM.

Take `C[C@@H]1CC[C@H](COc2cnn(C)c2-c2ccn3nc(NC(=O)C4CC4)cc3c2)N1C` [Example 256, N-[5-[4-[[(2R,5R)-1,5-dimethylpyrrolidin-2-yl]methoxy]-2-methyl-pyrazol-3-yl]pyrazolo[1,5-a]pyridin-2-yl]cyclopropanecarboxamide]: 42 nM corresponded to half-maximal inhibition (IC50).

In the case of `CO[C@H]1CN(C)C[C@H]1Oc1cnn(C)c1-c1ccn2nc(NC(=O)C3CC3)cc2c1` (single isomer, unassigned) [Example 411, (3*R,4*S)—N-[5-[4-(4-methoxy-1-methyl-pyrrolidin-3-yl)oxy-2-methyl-pyrazol-3-yl]pyrazolo[1,5-a]pyridin-2-yl]cyclopropanecarboxamide], it took 86.9 nM to reach half-maximal inhibition (IC50).

The compound `CO[C@H]1CNC[C@@H]1Oc1cnn(C)c1-c1ccn2nc(NC(=O)C3CC3)cc2c1` (racemic) [Example 421, (rac-trans)-N-[5-[4-(4-methoxypyrrolidin-3-yl)oxy-2-methyl-pyrazol-3-yl]pyrazolo[1,5-a]pyridin-2-yl]cyclopropanecarboxamide] displayed a half-maximal inhibitory concentration (IC50) of 116 nM.

`Cc1onc(OC[C@@H]2CCCCN2C)c1-c1ccn2nc(NC(=O)C3CC3)cc2c1` [Example 501, N-[5-[5-methyl-3-[[(2S)-1-methyl-2-piperidyl]methoxy]isoxazol-4-yl]pyrazolo[1,5-a]pyridin-2-yl]cyclopropanecarboxamide] gave an IC50 of 355 nM.

In turn, `CN1CC[C@H](Oc2cnn(C)c2-c2ccn3nc(Nc4cc5c(nn4)CCC5)cc3c2)C1` [Example 269, N-(6,7-dihydro-5H-cyclopenta[c]pyridazin-3-yl)-5-[2-methyl-4-[(3S)-1-methylpyrrolidin-3-yl]oxy-pyrazol-3-yl]pyrazolo[1,5-a]pyridin-2-amine] registered an IC50 of 33.2 nM.

Regarding `Cc1cncc(Nc2cc3cc(-c4c(CO[C@H]5CN(C)C[C@H]5C)cnn4C)ccn3n2)n1` (stereo in doubt) [Example 378, CIS—*R, *R-5-[4-[(1,4-dimethylpyrrolidin-3-yl)oxymethyl]-2-methyl-pyrazol-3-yl]-N-(6-methylpyrazin-2-yl)pyrazolo[1,5-a]pyridin-2-amine], it took 12.2 nM to reach half-maximal inhibition (IC50).

`Cn1ncc(O[C@H]2CNC[C@H]2F)c1-c1ccn2nc(NC(=O)C3CC3)cc2c1` [Example 504, N-[5-[4-[(3S,4R)-4-fluoropyrrolidin-3-yl]oxy-2-methyl-pyrazol-3-yl]pyrazolo[1,5-a]pyridin-2-yl]cyclopropanecarboxamide] registered an IC50 of 466 nM.

`CCN1CC[C@@H]1COc1cnn(C)c1-c1ccn2nc(Nc3cc(C)nc(C(C)(C)C)n3)cc2c1` [Example 177, N-(2-tert-butyl-6-methyl-pyrimidin-4-yl)-5-[4-[[(2R)-1-ethylazetidin-2-yl]methoxy]-2-methyl-pyrazol-3-yl]pyrazolo[1,5-a]pyridin-2-amine] came in with a 50% inhibitory concentration (IC50) of 1.5 nM.

For `Cn1ncc(CO[C@@H]2CNC[C@H]2F)c1-c1ccn2nc(NC(=O)C3CC3)cc2c1` [Example 466, N-[5-[4-[[(3R,4R)-4-fluoropyrrolidin-3-yl]oxymethyl]-2-methyl-pyrazol-3-yl]pyrazolo[1,5-a]pyridin-2-yl]cyclopropanecarboxamide], half-maximal inhibition (IC50) was put at 80.7 nM.

Turning to `Cc1onc(O[C@H]2CNC[C@H]2F)c1-c1ccn2nc(NC(=O)C3CC3)cc2c1` [Example 80, N-[5-[3-[(3S,4R)-4-fluoropyrrolidin-3-yl]oxy-5-methyl-isoxazol-4-yl]pyrazolo[1,5-a]pyridin-2-yl]cyclopropanecarboxamide], the IC50 was found to be 146 nM.

The compound `Cc1snc(OC[C@H]2CN(C)CCO2)c1-c1ccn2nc(NC(=O)C3CC3)cc2c1` [Example 332, N-[5-[5-methyl-3-[[(2R)-4-methylmorpholin-2-yl]methoxy]isothiazol-4-yl]pyrazolo[1,5-a]pyridin-2-yl]cyclopropanecarboxamide] registered an IC50 of 58.3 nM.

Consider `Cc1cnc(Nc2cc3cc(-c4c(CO[C@H]5CN(C)C[C@@H]5C)cnn4C)ccn3n2)cn1` (stereo in doubt) [Example 372, Trans-*S, *R-5-[4-[(1,4-dimethylpyrrolidin-3-yl)oxymethyl]-2-methyl-pyrazol-3-yl]-N-(5-methylpyrazin-2-yl)pyrazolo[1,5-a]pyridin-2-amine], for which the IC50 came to 24.4 nM.

As to `[2H]C([2H])([2H])C([2H])([2H])N1CC[C@@H]1COc1cnn(C)c1-c1ccn2nc(NC(=O)C3CC3)cc2c1` [Example 254, N-[5-[2-methyl-4-[[(2R)-1-(1,1,2,2,2-pentadeuterioethyl)azetidin-2-yl]methoxy]pyrazol-3-yl]pyrazolo[1,5-a]pyridin-2-yl]cyclopropanecarboxamide], the IC50 was 1.5 nM.

In turn, `CCn1ncc(OC[C@@H]2CCN(C)C2)c1-c1ccn2nc(NC(=O)C3CC3)cc2c1` [Example 398, N-[5-[2-ethyl-4-[[(3R)-1-methylpyrrolidin-3-yl]methoxy]pyrazol-3-yl]pyrazolo[1,5-a]pyridin-2-yl]cyclopropanecarboxamide] gave a concentration for half-maximal inhibition (IC50) of 97.8 nM.

Compound `Cc1cc(Nc2cc3cc(-c4c(OC[C@H]5CCN5C)cnn4C)ccn3n2)ncn1` [Example 55, 5-[2-methyl-4-[[(2R)-1-methylazetidin-2-yl]methoxy]pyrazol-3-yl]-N-(6-methylpyrimidin-4-yl)pyrazolo[1,5-a]pyridin-2-amine] returned an IC50 of 1.3 nM.

`Cc1onc(O[C@@H]2CN[C@@H]3CCCO[C@@H]32)c1-c1ccn2nc(NC(=O)C3CC3)cc2c1` [Example 227, (3R, 3aS, 7aR)—N-[5-[3-(1,2,3,3a,5,6,7,7a-octahydropyrano[3,2-b]pyrrol-3-yloxy)-5-methyl-isoxazol-4-yl]pyrazolo[1,5-a]pyridin-2-yl]cyclopropanecarboxamide]: the half-maximal inhibitory concentration (IC50) was found to be 34.9 nM.
